Data reported in patent US20250296953A1, “3,4-THIAZOLO-STEROIDS AND METHODS OF MAKING AND USING THE SAME” (Arkansas State University - Jonesboro, priority 2018, published 2025).
Where two headings read alike, the source gives them in different places.

Legend:
[1] = tested on: 60 different human tumor cell lines; assay: NCI Development Therapeutics Program 60 cell line screen, one dose; format: cell-based
NCI-H522 (NSCLC) = assay: NCI 60 one dose screen; format: cell-based, human; settings: Non-small Cell Lung Cancer
SF-295 = assay: NCI 60 one dose screen; format: cell-based, human; settings: one dose; CNS Cancer; SF-295
SF-539 = assay: NCI 60 one dose screen; format: cell-based, human; settings: one dose; CNS Cancer; SF-539
[2] = tested on: 60 different human tumor cell lines; settings: five dose
[3] = A549/ATCC (Non-small Cell Lung Cancer)
[4] = EKVX (Non-small Cell Lung Cancer)
[5] = HOP-62 (Non-small Cell Lung Cancer)
[6] = HOP-92 (Non-small Cell Lung Cancer)
[7] = MDA-MB-231/ATCC (Breast Cancer)

In the case of `C[C@]12CCc3nc(N)sc3C1=CC[C@@H]1[C@@H]2CC[C@]2(C)C(=NNC(N)=O)CC[C@@H]12` [IVb.1], the “Growth Percent” value ([1]; Breast Cancer, BT-549) is reported as 107.48%, the “Growth Percent” value ([1]; Breast Cancer, HS 578T) is reported as 36.38% and the “Growth Percent” value ([1]; Breast Cancer, MCF7) is reported as −55.62%. For the same compound, the “Growth Percent” value ([1]; Breast Cancer, MDA-MB-231/ATCC) was 35.18%, the “Growth Percent” value ([1]; Breast Cancer, MDA-MB-468) was −46.23% and the “Growth Percent” value ([1]; Breast Cancer, T-47D) was −21.02%. For the same compound, the “Growth Percent” value ([1]; CNS Cancer, SF-268) was −6.41%, the “Growth Percent” value ([1]; CNS Cancer, SNB-19) was −9.98% and the “Growth Percent” value ([1]; CNS Cancer, SNB-75) was 99.02%. The “Growth Percent” value ([1]; CNS Cancer, U251) was −69.94%, the “Growth Percent” value ([1]; Colon Cancer, COLO 205) was 34.98% and the “Growth Percent” value ([1]; Colon Cancer, HCC-2998) was 63.85%. For the same compound, the “Growth Percent” value ([1]; Colon Cancer, HCT-116) was 6.35%, the “Growth Percent” value ([1]; Colon Cancer, HT29) was 13.20% and the “Growth Percent” value ([1]; Colon Cancer, KM12) was 20.47%. For the same compound, the “Growth Percent” value ([1]; Colon Cancer, SW-620) was −59.20%, the “Growth Percent” value ([1]; Leukemia, CCRF-CEM) was −5.86% and the “Growth Percent” value ([1]; Leukemia, HL-60(TB)) was 42.82%. The “Growth Percent” value ([1]; Leukemia, K-562) was −38.55%, the “Growth Percent” value ([1]; Leukemia, MOLT-4) was 13.35% and the “Growth Percent” value ([1]; Leukemia, RPMI-8226) was −6.28%. For the same compound, the “Growth Percent” value ([1]; Leukemia, SR) was −21.79%, the “Growth Percent” value ([1]; Melanoma, LOX IMVI) was −67.61% and the “Growth Percent” value ([1]; Melanoma, M14) was −51.14%. The “Growth Percent” value ([1]; Melanoma, MALME-3M) was 3.07%, the “Growth Percent” value ([1]; Melanoma, MDA-MB-435) was −58.82% and the “Growth Percent” value ([1]; Melanoma, SK-MEL-5) was 20.55%. For the same compound, the “Growth Percent” value ([1]; Melanoma, SK-MEL-28) was 13.00%, the “Growth Percent” value ([1]; Melanoma, UACC-62) was 38.92% and the “Growth Percent” value ([1]; Melanoma, UACC-257) was 105.26%. The “Growth Percent” value ([1]; Non-small Cell Lung Cancer, A549/ATCC) was 0.92%, the “Growth Percent” value ([1]; Non-small Cell Lung Cancer, EKVX) was −4.54% and the “Growth Percent” value ([1]; Non-small Cell Lung Cancer, HOP-62) was 75.49%. The “Growth Percent” value ([1]; Non-small Cell Lung Cancer, HOP-92) was 46.57%, the “Growth Percent” value ([1]; Non-small Cell Lung Cancer, NCI-H23) was −44.30% and the “Growth Percent” value ([1]; Non-small Cell Lung Cancer, NCI-H226) was 107.87%. For the same compound, the “Growth Percent” value ([1]; Non-small Cell Lung Cancer, NCI-H322M) was 52.42%, the “Growth Percent” value ([1]; Non-small Cell Lung Cancer, NCI-H460) was −38.65% and the “Growth Percent” value ([1]; Ovarian Cancer, IGROV1) was 2.90%. The “Growth Percent” value ([1]; Ovarian Cancer, NCI/ADR-RES) was −5.32%, the “Growth Percent” value ([1]; Ovarian Cancer, OVCAR-3) was −32.35% and the “Growth Percent” value ([1]; Ovarian Cancer, OVCAR-4) was −19.07%. For the same compound, the “Growth Percent” value ([1]; Ovarian Cancer, OVCAR-5) was 72.93%, the “Growth Percent” value ([1]; Ovarian Cancer, OVCAR-8) was −2.26% and the “Growth Percent” value ([1]; Ovarian Cancer, SK-OV-3) was 100.67%. The “Growth Percent” value ([1]; Prostate Cancer, PC-3) was 57.29%, the “Growth Percent” value ([1]; Renal Cancer, 786-0) was −9.65% and the “Growth Percent” value ([1]; Renal Cancer, A498) was 91.62%. For the same compound, the “Growth Percent” value ([1]; Renal Cancer, ACHN) was 32.38%, the “Growth Percent” value ([1]; Renal Cancer, CAKI-1) was 62.97% and the “Growth Percent” value ([1]; Renal Cancer, RXF 393) was 7.08%. For the same compound, the “Growth Percent” value ([1]; Renal Cancer, SN12C) was 18.09%, the “Growth Percent” value ([1]; Renal Cancer, TK-10) was 49.21% and the “Growth Percent” value ([1]; Renal Cancer, UO-31) was 85.84%. For the same compound, the “Growth Percent” value (NCI-H522 (NSCLC)) was −18.57%, the “Growth Percent” value (SF-295) was 45.72% and the “Growth Percent” value (SF-539) was 87.19%. The GI50 ([2]; 786-0 (Renal Cancer)) was 1.39 µM, the TGI ([2]; 786-0 (Renal Cancer)) was 2.82E−6 and the GI50 ([2]; A498 (Renal Cancer)) was 2.1 µM. The TGI ([2]; A498 (Renal Cancer)) was 6.83E−6, the GI50 [2, 3] was 2.02 µM and the TGI [2, 3] was 3.89E−6. The GI50 ([2]; ACHN (Renal Cancer)) was 1.8 µM, the TGI ([2]; ACHN (Renal Cancer)) was 3.19E−6 and the GI50 ([2]; BT-549 (Breast Cancer)) was 2.84 µM. For the same compound, the TGI ([2]; BT-549 (Breast Cancer)) was 8.91E−6, the GI50 ([2]; CAKI-1 (Renal Cancer)) was 1.77 µM and the TGI ([2]; CAKI-1 (Renal Cancer)) was 3.64E−6. The GI50 ([2]; CCRF-CEM (Leukemia)) was 0.28 µM, the TGI ([2]; CCRF-CEM (Leukemia)) was 1.62E−6 and the GI50 ([2]; COLO 205 (Colon Cancer)) was 2.06 µM. For the same compound, the TGI ([2]; COLO 205 (Colon Cancer)) was 4.37E−6, the GI50 ([2]; DU-145 (Prostate Cancer)) was 1.75 µM and the TGI ([2]; DU-145 (Prostate Cancer)) was 3.41E−6. For the same compound, the GI50 [2, 4] was 1.8 µM, the TGI [2, 4] was 3.63E−6 and the GI50 ([2]; HCC-2998 (Colon Cancer)) was 1.74 µM. The TGI ([2]; HCC-2998 (Colon Cancer)) was 3.28E−6, the GI50 ([2]; HCT-15 (Colon Cancer)) was 1.46 µM and the TGI ([2]; HCT-15 (Colon Cancer)) was 2.86E−6. It also gave a GI50 ([2]; HCT-116 (Colon Cancer)) of 2.09 µM, a TGI ([2]; HCT-116 (Colon Cancer)) of 4.35E−6 and a GI50 ([2]; HL-60(TB) (Leukemia)) of 2.73 µM. The TGI ([2]; HL-60(TB) (Leukemia)) was 7.95E−6, the GI50 [2, 5] was 1.84 µM and the TGI [2, 5] was 3.47E−6. The GI50 [2, 6] was 1.51 µM, the TGI [2, 6] was 3.16E−6 and the GI50 ([2]; HS 578T (Breast Cancer)) was 2.08 µM. It also gave a TGI ([2]; HS 578T (Breast Cancer)) of 5.15E−6, a GI50 ([2]; HT29 (Colon Cancer)) of 1.88 µM and a TGI ([2]; HT29 (Colon Cancer)) of 3.73E−6. The GI50 ([2]; IGROV1 (Ovarian Cancer)) was 1.78 µM, the TGI ([2]; IGROV1 (Ovarian Cancer)) was 3.43E−6 and the GI50 ([2]; K-562 (Leukemia)) was 1.81 µM. It also gave a TGI ([2]; K-562 (Leukemia)) of 5.08E−6, a GI50 ([2]; KM12 (Colon Cancer)) of 2.01 µM and a TGI ([2]; KM12 (Colon Cancer)) of 4.01E−6. It also gave a GI50 ([2]; LOX IMVI (Melanoma)) of 1.71 µM, a TGI ([2]; LOX IMVI (Melanoma)) of 3.12E−6 and a GI50 ([2]; M14 (Melanoma)) of 1.94 µM. For the same compound, the TGI ([2]; M14 (Melanoma)) was 3.77E−6, the GI50 ([2]; MALME-3M (Melanoma)) was 1.76 µM and the TGI ([2]; MALME-3M (Melanoma)) was 3.49E−6. It also gave a GI50 ([2]; MCF7 (Breast Cancer)) of 1.52 µM, a TGI ([2]; MCF7 (Breast Cancer)) of 3.14E−6 and a GI50 [2, 7] of 1.7 µM. For the same compound, the TGI [2, 7] was 3.43E−6, the GI50 ([2]; MDA-MB-435 (Melanoma)) was 1.33 µM and the TGI ([2]; MDA-MB-435 (Melanoma)) was 2.70E−6. The GI50 ([2]; MDA-MB-468 (Breast Cancer)) was 1.6 µM, the TGI ([2]; MDA-MB-468 (Breast Cancer)) was 3.17E−6 and the GI50 ([2]; MOLT-4 (Leukemia)) was 2.64 µM. It also gave a TGI ([2]; MOLT-4 (Leukemia)) of 7.02E−6.
